Results taken from patent EP4692059A1, “CATIONIC LIPID HAVING DISULFIDE BOND” (Tohoku University, priority 2023, dated 2024).

Experiments:
[1] = Measurement of Liposomal pKa (TNS fluorescence, LNP without nucleic acid); settings: cationic lipid:DOPC:Chol = 52.5:7.5:40 (molar ratio) + DMG-PEG2k about 1.5 mol, pH at which the relative fluorescence intensity was 50%
Experimental: Lipid nano particles (LNP) without containing nucleic acid were used for the evaluation of Liposomal pKa.
To the obtained mixture was further added DMG-PEG2k (2 mM ethanol solution) in an amount of about 1.5 mol with respect to the total amount 100 mol of cationic lipid, DOPC, and Chol, and then ethanol was added to prepare an ethanol solution of the lipid (total amount: 360 µL).
An acidic malic acid buffer (20 mM, pH 3.0) (1080 µL) containing NaCl at a final concentration of 30 mM and an ethanol solution (360 µL) of lipid were each weighed in a syringe. Using an ultra high-speed nanomedicament producing apparatus NanoAssmblr (manufactured by Precision NanoSystems), LNP was prepared under the conditions of addition rate of acidic buffer solution: 3 mL/min, addition rate of ethanol solution of lipid: 1 mL/min, and syringe holder temperature: 25°C, and collected in a 15 mL tube. […]
20 mM Citrate buffer, sodium phosphate buffer, and tris HCl buffer, each containing NaCl at a final concentration of 150 mM and adjusted to various pHs within the range of pH 3.0 to 10.0, were prepared. […] The relative fluorescence intensity was calculated as a percentage, with the maximum value of the fluorescence intensity in each LNP being 100% and the minimum value being 0%.

liver [2] = test: In vivo gene expression, luciferase luminescence in the liver after tail vein administration (Experimental Example 4); settings: BALB/c mouse, mRNA 0.05 mg/kg
HeLa cells = test: In vitro gene expression in HeLa cells (luciferase mRNA-encapsulating LNP, cumulative luminescence in 24 hr)
Experimental: LNP encapsulating mRNA that expresses luciferase (cationic lipid:DOPC:Chol:DMG-PEG2k = 50:10:40:1 (molar ratio)) was prepared by the method described in [Experimental Example 2], 1.
HeLa cells, which are human cervical cancer cells, were seeded in a 3.5 cm dish at 5.0×10^4 cells/2 mL/Dish 24 hours before transfection. After 24 hr, the medium was changed to a culture medium (D-MEM) containing 0.1 mM D-luciferin. The prepared mRNA-encapsulating LNP was diluted with PBS to an mRNA concentration of about 1 µg/mL. The diluted mRNA-encapsulating LNP solution (about 200 µL, mRNA: 0.2 µg) was added to a 3.5 cm dish, and set in an incubator luminometer KronosDio. The luminescence intensity of luciferase was measured for 2 min every one hour. The cumulative luciferase luminescence intensity in 24 hr was calculated from the obtained time change of expression. […] In Comparative Example, the cationic lipid described in Table 2 was used.

[3] = Particle size, PdI and zeta potential of mRNA-encapsulating LNPs by dynamic light scattering (Experimental Example 6); type: physicochemical; settings: mRNA-encapsulating LNP
Experimental: An acidic buffer solution (total amount: 1300 µL) of nucleic acid was prepared by weighing 6.5 µg of mRNA solution (0.6 mg/mL) in a 5 mL tube and adding acidic citrate buffer (20 mM, pH 5.0).
An acidic buffer solution of nucleic acid and an ethanol solution of lipid were each weighed in a syringe. […] The obtained concentrate was diluted with TBS to a lipid concentration of 2 mM to give a dispersion containing LNP.
The particle size, PdI (Polydispersity Index), and zeta potential of the mRNA-encapsulating LNP prepared by the method of the above-mentioned 1 were measured by a dynamic light scattering method (Zetasizer Nano; Malvern). […]

liver [4] = test: In vivo gene expression, luciferase luminescence in the liver after tail vein administration (Experimental Example 7); settings: BALB/c mouse, mRNA 0.05 mg/kg
Experimental: LNP encapsulating mRNA that expresses luciferase (cationic lipid:DOPC:Chol:DMG-PEG2k = 52.5:7.5:40:1.5 (molar ratio)) was prepared by the method described in [Experimental Example 6], 1.
The prepared each mRNA-encapsulating LNP dispersion was administered from the tail vein of BALB/c mouse (male, 5-week-old). The dose of mRNA was set to 0.05 mg per 1 kg body weight of the mouse, and the dose of the mRNA-encapsulating LNP dispersion was set to 10 µL per 1 g body weight of the mouse. After 4.5 hr from the administration of the mRNA-encapsulating LNP dispersion, a PBS solution of D-luciferin potassium was administered into the abdominal cavity of the mouse. The dose of D-luciferin potassium was set to 3 mg per mouse, and the dose of the PBS solution of D-luciferin potassium was set to 200 µL per mouse. After 15 min from the administration of the PBS solution of D-luciferin potassium, the mouse was euthanized, and the liver was isolated. The luminescence in the liver was quantified using an in vivo imaging system (IVIS) with an exposure of 10 sec. The amount of luminescence in the liver was quantified by image analysis using Live Imaging software attached to IVIS. The amount of luminescence (photons/sec) was calculated from the acquired image and used as an index of gene expression activity. The cationic lipids used, the luminescence intensity in the liver, and the relative luminescence intensity (= luminescence intensity in the liver when cationic lipid of Example was used/luminescence intensity in the liver when cationic lipid of Comparative Example was used) are shown in Table 9. For example, "3.94E+09" means "3.94×10^9". […]

[5] = liver luminescence relative to cationic lipid of Comparative Example
[6] = cationic lipid:DOPC:Chol=49:7.5:42.5:1, dispersion in TBS, dynamic light scattering (Tables 8-1, 8-2)

## CCCCCCCC/C=C\CCCCCCCC(=O)Oc1ccc(CC(=O)OCCC2CCN(CCSSCCN3CCC(CCOC(=O)Cc4ccc(OC(=O)CCCCCCC/C=C\CCCCCCCC)cc4)CC3)CC2)cc1 [Comparative Example, reference compound]
[1]
  Liposomal pKa: 6.50
Liver [2]; tail vein, 4.5 hr after administration, LNP cationic lipid:DOPC:Chol:DMG-PEG2k = 52.5:7.5:40:1.5, prepared as in Experimental Example 2
  amount of luminescence (photons/sec) in liver: 1.52E+09 photons/sec
Liver [2]; [5]
  relative amount of luminescence: 1.00
HeLa cells; LNP cationic lipid:DOPC:Chol:DMG-PEG2k = 50:10:40:1, mRNA 0.2 µg per dish, E+0a means 10^a
  cumulative luciferase luminescence intensity (RLU) in 24 hr: 1.85E+07 RLU
HeLa cells; cumulative intensity in 24 hr relative to cationic lipid of Comparative Example
  relative luminescence intensity: 1.00
[3]; cationic lipid:DOPC:Chol=49:7.5:42.5:1, dispersion in TBS (Tables 8-1, 8-2)
  zeta potential (mV): -2.68 mV
[3]; [6]
  PdI: 0.075
  particle size (nm): 123.80 nm
Liver [4]; tail vein, 4.5 hr after administration, LNP cationic lipid:DOPC:Chol:DMG-PEG2k = 52.5:7.5:40:1.5, prepared as in Experimental Example 6
  amount of luminescence (photons/sec) in liver: 2.05E+09 photons/sec
Liver [4]; [5]
  relative amount of luminescence: 1.00
